Reference: patent EP0776155B1, “DELIVERY OF EXOGENOUS CHEMICAL SUBSTANCES TO PLANT TISSUES” (MONSANTO COMPANY, priority 1994, dated 1996)

Tests used:
Assay type in all cases: in vivo
[1] = tested on: silvergrass (Vulpia sp., VLPSS); assay: Example 51: field experiment, percent control, bruising or blasting then glyphosate spray; conditions: 14 days after glyphosate application
Protocol: (§1) In this Example illustrative of the invention, a field experiment was conducted in the Australian Capital Territory on 5-10 cm high vegetation consisting primarily of white flatweed (Hypochoeris microcephala, HRYMI) at the rosette stage of growth and silvergrass (Vulpia sp., VLPSS) at the 1-3 tiller stage. Plots were established, 2 m wide and 10 m long, with 3 replications of each treatment.
(§2) Plots received either no physical injury, or one of two injury treatments, a prior art method described herein as "bruising" and a method of the present invention described herein as "blasting". Bruising involved driving a 2 metric ton four-wheel drive vehicle fitted with rubber tires, twice over the plot in opposite directions. For blasting, a hand-held sandblaster was used having a container of capacity 1000 cm^3 slung under the gun body. The sandblaster was made of die-cast aluminum alloy and equipped with a 6 mm nozzle. The operating pressure was 95 lb/sq inch (655 kPa). The abrasive used was a commercial product consisting of fine glass particles.
(§3) Within an hour after bruising or blasting, plots received an application of glyphosate as its isopropylamine salt in the form of the aqueous concentrate formulation sold in Australia as Roundup® herbicide, diluted appropriately in water. Application was made using a hand-held boom sprayer fitted with 11001 nozzles, operating at 250 kPa pressure and delivering 90 liters/ha spray volume.
(§4) After an interval of 14 days, a visual evaluation was performed to estimate herbicidal efficacy as percent control of plants in treated plots compared to untreated check plots.

[2] = tested on: white flatweed (Hypochoeris microcephala, HRYMI); assay: as above; conditions: 14 days after glyphosate application
Protocol: as §1, §2, §3, §4

[3] = tested on: velvetleaf (Abutilon theophrasti, ABUTH); assay: Example 12: percent control, abrasion 5, 2, 1 days before glyphosate application; conditions: glyphosate rate (kg a.e./ha)
Protocol: In these Examples illustrative of the invention, velvetleaf (Abutilon theophrasti, ABUTH) seeds were planted in 4-inch (10.1 cm) square pots containing 100% silt loam soil to which 35 grams/cu ft (1.25 kg/m^3) IBDU fertilizer was added, and covered with a mix of 50% Rediearth plus 50% silt loam. The pots were sub-irrigated and the seedlings thinned after emergence to 2 plants per pot.
Abrasion was applied using propelled 200-mesh garnet exactly as described for Examples 1-9. The herbicide used in these Examples was glyphosate as its isopropylamine salt, applied as diluted MON 2139, exactly as described for Examples 1-9.
The time period between abrasion and herbicide application was varied as follows. In Example 11, all abrasion treatments were applied within a short period of time, and herbicide applications were made 2, 4 and 24 hours after abrasion. A set of abraded plants received no herbicide at any time. In addition, herbicide applications were made to unabraded plants at two times: (i) at the time of abrasion, and (ii) 24 hours after the time of abrasion. In Example 12, all herbicide applications were made within a short period of time, and abrasion was applied 5, 2 and 1 days before herbicide application. In addition, herbicide application was made to unabraded plants.
Three replications were performed of every treatment. After treatment, all plants were placed in the greenhouse for the remainder of the experiment, and sub-irrigated. The first replicate was placed in one block in order of the treatment list for ease of viewing and the remaining replicates were randomly placed in two separate blocks.
After an interval of 12-14 days after herbicide application, a visual evaluation was performed to estimate herbicidal efficacy as percent control of treated plants compared to untreated check plants.

[4] = tested on: velvetleaf (Abutilon theophrasti, ABUTH); assay: Example 49: percent control, dry ice (solid carbon dioxide) injury then glyphosate spray
Protocol: In this Example illustrative of the invention, velvetleaf (Abutilon theophrasti, ABUTH) seeds were planted in 4-inch (10.1-cm) square pots filled with 100% silt loam to which 35 g/cu ft (1.25 kg/m^3) IBDU fertilzer were added, and the seeds were covered with 50% Rediearth plus 50% silt loam without fertilizer. […] The same settings were maintained before and after treatment.
Physical injury in this Example was inflicted on the above-ground portions of the plants, two weeks after planting, by means of 15-30 particles of dry ice (carbon dioxide in its solid phase) propelled on to each plant using a 1 oz (28.3 ml) French square bottle having two 3 mm holes in the lid, with vigorous shaking of the bottle 8-12 inches (20-30 cm) above the plant canopy.
After dry ice treatment, plants were sprayed with glyphosate as its isopropylamine salt, in the form of the aqueous concentrate formulation MON 2139 of Monsanto Company. Plants with and without the dry ice treatment were sprayed at the same time using a track sprayer calibrated to deliver 20 gallons/acre (187 liters/ha) water with an 8002E nozzle having a 50-mesh screen, 16 inches (41 cm) above the plant canopy. Each treatment was replicated three times. Similar glyphosate treatments were applied to plants which had not received dry ice. Plants were returned to the greenhouse after spraying. […]

[5] = glyphosate rate 0.18 kg a.e./ha, injury treatment blasting
[6] = glyphosate rate 0.18 kg a.e./ha, injury treatment bruising
[7] = glyphosate rate 0.18 kg a.e./ha, injury treatment none
[8] = glyphosate rate 0.25 kg a.e./ha, injury treatment blasting
[9] = glyphosate rate 0.25 kg a.e./ha, injury treatment bruising
[10] = glyphosate rate 0.25 kg a.e./ha, injury treatment none
[11] = glyphosate rate 0.36 kg a.e./ha, injury treatment blasting
[12] = glyphosate rate 0.36 kg a.e./ha, injury treatment bruising
[13] = glyphosate rate 0.36 kg a.e./ha, injury treatment none

Compound: O=C(O)CNCP(=O)(O)O [glyphosate, N-phosphonomethylglycine]
- percent control VLPSS [1, 5]: 77%
- percent control VLPSS [1, 6]: 78%
- percent control VLPSS [1, 7]: 65%
- percent control VLPSS [1, 8]: 82%
- percent control VLPSS [1, 9]: 83%
- percent control VLPSS [1, 10]: 85%
- percent control VLPSS [1, 11]: 98%
- percent control VLPSS [1, 12]: 83%
- percent control VLPSS [1, 13]: 95%
- percent control HRYMI [2, 5]: 77%
- percent control HRYMI [2, 6]: 77%
- percent control HRYMI [2, 7]: 62%
- percent control HRYMI [2, 8]: 100%
- percent control HRYMI [2, 9]: 80%
- percent control HRYMI [2, 10]: 78%
- percent control HRYMI [2, 11]: 100%
- percent control HRYMI [2, 12]: 93%
- percent control HRYMI [2, 13]: 92%
- percent control of ABUTH 12 days after glyphosate application ([3]; abraded before 0 days, glyphosate 0.056 kg a.e./ha): 79%
- percent control of ABUTH 12 days after glyphosate application ([3]; abraded before 0 days, glyphosate 0.11 kg a.e./ha): 95%
- percent control of ABUTH 12 days after glyphosate application ([3]; abraded before 0 days, glyphosate 0.22 kg a.e./ha): 100%
- percent control of ABUTH 12 days after glyphosate application ([3]; abraded before 1 day, glyphosate 0.056 kg a.e./ha): 77%
- percent control of ABUTH 12 days after glyphosate application ([3]; abraded before 1 day, glyphosate 0.11 kg a.e./ha): 92%
- percent control of ABUTH 12 days after glyphosate application ([3]; abraded before 1 day, glyphosate 0.22 kg a.e./ha): 100%
- percent control of ABUTH 12 days after glyphosate application ([3]; abraded before 2 days, glyphosate 0.056 kg a.e./ha): 76%
- percent control of ABUTH 12 days after glyphosate application ([3]; abraded before 2 days, glyphosate 0.11 kg a.e./ha): 93%
- percent control of ABUTH 12 days after glyphosate application ([3]; abraded before 2 days, glyphosate 0.22 kg a.e./ha): 100%
- percent control of ABUTH 12 days after glyphosate application ([3]; abraded before 5 days, glyphosate 0.056 kg a.e./ha): 52%
- percent control of ABUTH 12 days after glyphosate application ([3]; abraded before 5 days, glyphosate 0.11 kg a.e./ha): 73%
- percent control of ABUTH 12 days after glyphosate application ([3]; abraded before 5 days, glyphosate 0.22 kg a.e./ha): 97%
- percent control of ABUTH 12 days after glyphosate application ([3]; abraded before 5 days, glyphosate 0.45 kg a.e./ha): 100%
- percent control of ABUTH ([4]; glyphosate rate 0.014 kg a.i./ha, not treated with dry ice, 5 DAT): 0%
- percent control of ABUTH ([4]; glyphosate rate 0.014 kg a.i./ha, not treated with dry ice, 11 DAT): 0%
- percent control of ABUTH ([4]; glyphosate rate 0.014 kg a.i./ha, treated with dry ice, 5 DAT): 0%
- percent control of ABUTH ([4]; glyphosate rate 0.014 kg a.i./ha, treated with dry ice, 11 DAT): 0%
- percent control of ABUTH ([4]; glyphosate rate 0.028 kg a.i./ha, not treated with dry ice, 5 DAT): 0%
- percent control of ABUTH ([4]; glyphosate rate 0.028 kg a.i./ha, not treated with dry ice, 11 DAT): 0%
- percent control of ABUTH ([4]; glyphosate rate 0.028 kg a.i./ha, treated with dry ice, 5 DAT): 0%
- percent control of ABUTH ([4]; glyphosate rate 0.028 kg a.i./ha, treated with dry ice, 11 DAT): 0%
- percent control of ABUTH ([4]; glyphosate rate 0.056 kg a.i./ha, not treated with dry ice, 5 DAT): 0%
- percent control of ABUTH ([4]; glyphosate rate 0.056 kg a.i./ha, not treated with dry ice, 11 DAT): 0%
- percent control of ABUTH ([4]; glyphosate rate 0.056 kg a.i./ha, treated with dry ice, 5 DAT): 0%
- percent control of ABUTH ([4]; glyphosate rate 0.056 kg a.i./ha, treated with dry ice, 11 DAT): 2%
- percent control of ABUTH ([4]; glyphosate rate 0.11 kg a.i./ha, not treated with dry ice, 5 DAT): 8%
- percent control of ABUTH ([4]; glyphosate rate 0.11 kg a.i./ha, not treated with dry ice, 11 DAT): 0%
- percent control of ABUTH ([4]; glyphosate rate 0.11 kg a.i./ha, treated with dry ice, 5 DAT): 22%
- percent control of ABUTH ([4]; glyphosate rate 0.11 kg a.i./ha, treated with dry ice, 11 DAT): 8%
- percent control of ABUTH ([4]; glyphosate rate 0.21 kg a.i./ha, not treated with dry ice, 5 DAT): 60%
- percent control of ABUTH ([4]; glyphosate rate 0.21 kg a.i./ha, not treated with dry ice, 11 DAT): 73%
- percent control of ABUTH ([4]; glyphosate rate 0.21 kg a.i./ha, treated with dry ice, 5 DAT): 71%
- percent control of ABUTH ([4]; glyphosate rate 0.21 kg a.i./ha, treated with dry ice, 11 DAT): 83%
- percent control of ABUTH ([4]; glyphosate rate 0.45 kg a.i./ha, not treated with dry ice, 5 DAT): 80%
- percent control of ABUTH ([4]; glyphosate rate 0.45 kg a.i./ha, not treated with dry ice, 11 DAT): 100%
- percent control of ABUTH ([4]; glyphosate rate 0.45 kg a.i./ha, treated with dry ice, 5 DAT): 89%
- percent control of ABUTH ([4]; glyphosate rate 0.45 kg a.i./ha, treated with dry ice, 11 DAT): 100%
- percent control of ABUTH ([4]; glyphosate rate 0.89 kg a.i./ha, not treated with dry ice, 5 DAT): 97%
- percent control of ABUTH ([4]; glyphosate rate 0.89 kg a.i./ha, not treated with dry ice, 11 DAT): 100%
- percent control of ABUTH ([4]; glyphosate rate 0.89 kg a.i./ha, treated with dry ice, 5 DAT): 93%
- percent control of ABUTH ([4]; glyphosate rate 0.89 kg a.i./ha, treated with dry ice, 11 DAT): 100%
